These are literature values, as cited in patent US8071577B2, “Multi-phase contraceptive preparation based on a natural estrogen” (Bayer Pharma Aktiengesellschaft, priority 2004, dated 2011).

For the series, the system named is ovulation. The note with it: daily dose known from the literature.

For the compound `C[C@]12CCC3=C4CCC(=O)C=C4CC[C@H]3[C@@H]1CC[C@@]2(O)CC#N` [dienogest], the ovulation-inhibitory dose is 1.0 mg a day.
With `C[C@]12CCC(=O)C=C1[C@@H]1C[C@@H]1[C@H]1[C@@H]3[C@@H]4C[C@@H]4[C@@]4(CCC(=O)O4)[C@@]3(C)CC[C@@H]12` [drospirenone], the ovulation-inhibitory dose is listed as 2.0-3.0 mg a day.
